Data on 6 molecules can be found in US7335723B2, “Melanin-concentrating hormone antagonists” (priority 2001, dated 2008).

For test [1], the target named is T1, rat MCH-1R (Rattus norvegicus, UniProt P97639). Briefly: Aequorin bioluminescence functional assay, MCH-1R agonist activity. The note with it: for MCH-1R Agonist Activation %: 293-AEQ17 cells expressing rat MCH-1R.
The target in a further test is human MCH-2R (Homo sapiens, UniProt Q969V1). The experiment in a line: Aequorin bioluminescence functional assay, MCH-2R agonist activity. The settings on record: for MCH-2R Agonist Activation %: 293-AEQ17 cells expressing human MCH-2R.
Chain of human MCH-2R (Q969V1 whole entry): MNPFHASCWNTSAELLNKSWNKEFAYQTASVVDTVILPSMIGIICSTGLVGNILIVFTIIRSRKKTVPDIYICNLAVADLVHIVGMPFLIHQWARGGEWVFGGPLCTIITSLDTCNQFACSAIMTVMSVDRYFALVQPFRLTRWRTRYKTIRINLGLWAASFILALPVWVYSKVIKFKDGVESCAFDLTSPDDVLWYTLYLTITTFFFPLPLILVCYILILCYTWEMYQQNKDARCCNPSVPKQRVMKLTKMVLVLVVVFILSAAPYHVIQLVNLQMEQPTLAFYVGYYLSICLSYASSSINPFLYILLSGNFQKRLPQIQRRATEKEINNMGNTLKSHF
Test [2] addresses T1, rat MCH-1R. Briefly: Antagonist assay, 293-AEQ17 cells expressing rat MCH-1R. Type of test: cell-based. Also on record: expressed in transfected cells; host or cells: 293-AEQ17 (aequorin-expressing HEK-293 reporter line). The settings on record: for Kb: determined per Trends in Pharmacol. Sci. 14:237-239, 1993. The protocol: Cells were grown in DMEM (high glucose) supplemented with 10% FBS (Hyclone), 500 μg/ml G418, 200 μg/ml hygromycin and 25 mM HEPES in T75 flasks.
The assay itself involved charging apoaequorin with coelenterazine cp(Molecular Probes, C-14260) and was performed as follows:
1. Confluent T75 flasks are rinsed 1× with 12 ml Hams F12 medium+300 μM glutathione+0.1% FBS.
2. The cells were charged by adding 8 ml Hams F12+0.1% FBS+300 μM glutathione+10 μM coelenterazine, incubate at 37° C. for 1 hour.
4. ECB (6 ml) is added to the flask and the cells are dissociated with a rubber-tipped scraper, centrifuged for 5 minutes at 2500 rpm and the cell pellet resuspended in 5 ml ECB. The cells are counted and diluted to 5×10^5/ml.
Binding and agonist activity at the MCH-1R and MCH-2R was determined as described in Examples 2 and 3. Antagonist IC50 was determined as described in Example 4. Kb was determined using the procedures described in Trends in Pharmacol. Sci. 14:237-239, 1993.

For the next test, the target named is human MCH-1R (Homo sapiens, UniProt Q99705). The experiment in a line: MCH-1R binding assay, inhibition of [125I]-human MCH binding to membranes.
Chain of human MCH-1R (Q99705 whole entry): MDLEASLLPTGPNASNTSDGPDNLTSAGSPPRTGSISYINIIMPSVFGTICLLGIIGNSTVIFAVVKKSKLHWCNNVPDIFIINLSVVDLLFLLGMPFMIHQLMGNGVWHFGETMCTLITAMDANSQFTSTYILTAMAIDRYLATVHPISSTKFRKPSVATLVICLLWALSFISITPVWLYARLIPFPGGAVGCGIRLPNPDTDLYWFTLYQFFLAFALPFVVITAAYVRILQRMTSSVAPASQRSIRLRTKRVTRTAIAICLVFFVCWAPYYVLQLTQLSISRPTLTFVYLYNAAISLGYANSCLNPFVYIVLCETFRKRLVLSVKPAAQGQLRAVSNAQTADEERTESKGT

The structures appear in SMILES notation. Where a SMILES comes first, the peptide text is derived from it. Bridges are numbered along the chain shown (N, C = ends). [ ]: non-standard residue; d: D form. The star is where a group is joined. Pentanoyl(5-guanidino) = NC(N)=NCCCCC(=O)*; dNle = CCCC[C@@H](N)C(=O)O; Ava = NCCCCC(=O)O

T1 sequence (P97639 whole entry): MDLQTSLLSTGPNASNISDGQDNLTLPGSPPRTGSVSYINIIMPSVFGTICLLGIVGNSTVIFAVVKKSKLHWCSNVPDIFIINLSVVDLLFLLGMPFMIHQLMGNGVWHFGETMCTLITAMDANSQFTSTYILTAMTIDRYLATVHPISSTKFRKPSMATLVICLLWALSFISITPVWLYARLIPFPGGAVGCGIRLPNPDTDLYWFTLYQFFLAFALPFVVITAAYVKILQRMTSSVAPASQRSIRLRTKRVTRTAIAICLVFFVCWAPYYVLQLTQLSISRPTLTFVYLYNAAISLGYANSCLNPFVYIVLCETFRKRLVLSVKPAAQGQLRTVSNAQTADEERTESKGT

In the case of `CCCC[C@H]1NC(=O)[C@H](CC(C)C)NC(=O)[C@H](CCSC)NC(=O)[C@@H](NC(=O)CCCCNC(=N)N)CSSC[C@@H](C(N)=O)NC(=O)CCCCNC(=O)CCCCNC(=O)[C@H](Cc2ccc(O)cc2)NC(=O)[C@H](C(C)C)NC(=O)[C@H](CCCNC(=N)N)NC1=O` [SEQ. ID. NO. 27] ({Pentanoyl(5-guanidino)}-CML[dNle]RVY[Ava][Ava]C-NH2; disulfide 1-10; C-terminus assumed), at rat MCH-1R [1], the half-maximal effective concentration (EC50) (commonly the concentration needed to bring the measured effect to its halfway point) is over 10000 nM and the “MCH-1R Agonist Activation %” value is listed as 3%. Also, on human MCH-2R, the EC50 was over 10000 nM and the “MCH-2R Agonist Activation %” value is 91%. On rat MCH-1R [2], half-maximal inhibition (IC50) required 5.4 nM and the Kb (as a rule, the equilibrium dissociation constant of an antagonist, usually derived from a functional assay) came to 2.4 nM. Besides, the IC50 (usually the concentration at which inhibition is half-maximal) on human MCH-1R was 28 nM.
`CC(C)C[C@@H]1NC(=O)[C@H](C)NC(=O)[C@@H](NC(=O)CCCCNC(=N)N)CSSC[C@@H](C(N)=O)NC(=O)CCCCNC(=O)CCCCNC(=O)[C@H](Cc2ccc(O)cc2)NC(=O)[C@H](C(C)C)NC(=O)[C@H](CCCNC(=N)N)NC(=O)CNC1=O` [SEQ. ID. NO. 19] ({Pentanoyl(5-guanidino)}-CALGRVY[Ava][Ava]C-NH2; disulfide 1-10 (inferred); C-terminus assumed) returned a 50% effective concentration (EC50) on rat MCH-1R [1] of over 10000 nM. Moreover, on human MCH-2R, the EC50 was over 10000 nM and the “MCH-2R Agonist Activation %” value is recorded as 45%. Moreover, on rat MCH-1R [2], the IC50 was found to be 67 nM and the Kb turned out to be 29 nM. Further, the IC50 on human MCH-1R was found to be 140 nM.
On to `CSCC[C@@H]1NC(=O)[C@@H](NC(=O)CCCCNC(=N)N)CSSC[C@@H](C(N)=O)NC(=O)CCNC(=O)CCNC(=O)[C@H](Cc2ccc(O)cc2)NC(=O)[C@H](C(C)C)NC(=O)[C@H](CCCNC(=N)N)NC(=O)CNC(=O)[C@H](CC(C)C)NC1=O` [SEQ. ID. NO. 14], for which, at rat MCH-1R [1], the EC50 is over 10000 nM and the “MCH-1R Agonist Activation %” value was 3.6%. Moreover, on human MCH-2R, the EC50 was over 10000 nM and the “MCH-2R Agonist Activation %” value amounted to 32%. At rat MCH-1R [2], this molecule showed an IC50 of 6.8 nM and a Kb of 3 nM. Moreover, the IC50 at human MCH-1R turned out to be 176 nM.
In the case of `CSCC[C@@H]1NC(=O)[C@@H](NC(=O)[C@@H](CCCNC(=N)N)NC(C)=O)CSSC[C@@H](C(N)=O)NC(=O)CCCCNC(=O)CCCCNC(=O)[C@H](Cc2ccc(O)cc2)NC(=O)[C@H](C(C)C)NC(=O)[C@H](CCCNC(=N)N)NC(=O)CCCCNC(=O)CCCCNC1=O` [SEQ. ID. NO. 33] (Ac-[dR]CM[Ava][Ava]RVY[Ava][Ava]C-NH2; disulfide 2-11 (inferred); C-terminus assumed), at rat MCH-1R [1], the EC50 was over 10000 nM and the “MCH-1R Agonist Activation %” value turned out to be 2%. Further, on human MCH-2R, the concentration for a half-maximal effect (EC50) was over 10000 nM and the “MCH-2R Agonist Activation %” value is listed as 28%. At rat MCH-1R [2], this molecule had an IC50 of 13.8 nM and an antagonist equilibrium constant (Kb) of 6 nM. The molecule also showed a half-inhibitory concentration (IC50) on human MCH-1R of 135 nM.
As for `CSCC[C@@H]1NC(=O)[C@@H](NC(=O)[C@H](CCCNC(=N)N)NC(C)=O)CSSC[C@@H](C(N)=O)NC(=O)CCCCNC(=O)CCCCNC(=O)[C@H](Cc2ccc(O)cc2)NC(=O)[C@H](C(C)C)NC(=O)[C@H](CCCNC(=N)N)NC(=O)CNC(=O)[C@H](CC(C)C)NC1=O` [SEQ. ID. NO. 8] (Ac-RCMLGRVY[Ava][Ava]C-NH2; disulfide 2-11; C-terminus assumed), on rat MCH-1R [1], the EC50 was found to be 406 nM and the “MCH-1R Agonist Activation %” value was 75%. The same molecule came in with an EC50 at human MCH-2R of over 10000 nM. The IC50 on human MCH-1R is 6.6 nM.
On to `CC(=O)N[C@@H](CCCNC(=N)N)C(=O)N[C@H]1CSSC[C@@H](C(N)=O)NC(=O)CCCCNC(=O)CCCCNC(=O)[C@H](Cc2ccc(O)cc2)NC(=O)[C@H](C(C)C)NC(=O)[C@H](CCCNC(=N)N)NC(=O)CNC(=O)[C@H](CC(C)C)NC(=O)[C@H](C)NC1=O` [SEQ. ID. NO. 22] (Ac-RCALGRVY[Ava][Ava]C-NH2; disulfide 2-11; C-terminus assumed), for which, on rat MCH-1R [1], the EC50 was over 10000 nM and the “MCH-1R Agonist Activation %” value stood at 0.1%. For the same molecule, at human MCH-2R, the concentration for a half-maximal effect (EC50) was determined as 1830 nM and the “MCH-2R Agonist Activation %” value turned out to be 25%. The molecule further registered an IC50 on human MCH-1R of over 1000 nM.
